Experimental data as given in patent publication EP1861713B1, “METHOD OF SCREENING PET TRACERS FOR EARLY CANCER THEREAPY MONITORING” (GE Healthcare Limited, priority 2005, dated 2006).
Entries after “also recorded” stand apart in the source; their conditions may differ. Read-outs that look alike come from different tables or passages of the source. Each block holds one compound with its values, some of them ahead of it.

Assays:
MTSs of MCF-7 cell line = assay: Basic [18F]FDG uptake experiments in MTS (competition, inhibition, insulin); type: cell-based, human
Procedure: (§1) • a. Cells of the MCF-7 human breast cancer line (European Collection of Cell Culture) were grown in MEM/EBSS supplemented with 10% FCS, 1mM sodium pyruvate, 2mM L-glutamine, 1% non-essential amino acid and 5% penicillin (Tamro). […] Cells of the BT474 human breast cancer line (American Type Culture Collection) were grown in DMEM supplemented with 10% FCS, 1mM sodium pyruvate, and 5% penicillin (Tamro).
(§2) The MTSs were incubated for 50 min at 37°C with 0.5 ml medium per well containing 3MBq [^18F]FDG[21], and then washed 3x5 min with medium (1 ml/well).
To ensure the physiological validity of [^18F]FDG uptake in MTS, a number of basic experiments were performed: • Temperature dependence of [^18F]FDG uptake. The [^18F]FDG uptake experiments were performed with two different incubation temperatures: 4°C and 37°C. • Competition Experiment. Glucose concentration in the growing culture medium was 5 mM. To perform the competition experiment, unlabeled extra glucose was diluted in the growing culture medium with a concentration of 0mM (for the control group), 5mM, 10mM and 20mM. Culture medium was replaced by glucose/[^18F]FDG-containing culture medium. After 50 min incubation the [^18F]FDG uptake was measured. • Inhibition Experiment. The MTSs were pre-incubated with four different concentrations of an inhibitor of glucose transport, Cytochalasin-B; 0µM (for control group), 10µM, 25µM and 50µM followed by 50 min [^18F]FDG incubation. • Insulin-mediated [^18F]FDG uptake. The MTSs were pre-incubated with or without (control group) 10µM insulin followed by 50 min [^18F]FDG incubation.
It is noticeable that the basic experiments were performed only on MTSs of MCF-7 cell line. In each experimental set-up six MTSs in one 24-well plate were referred to as one group and the experiments were repeated three times.

[1] = system: MCF-7 human breast cancer line; assay: PET tracer uptake in multicellular tumor spheroids (MTS) after anticancer treatment; type: cell-based; details: MCF-7 MTSs; 1 and 10µM; 3 and 5 days of treatment; normalized to control
Procedure: Cells of the MCF-7 human breast cancer line (European Collection of Cell Culture) were grown in MEM/EBSS supplemented with 10% FCS, 1mM sodium pyruvate, 2mM L-glutamine, 1% non-essential amino acid and 5% penicillin (Tamro).
After 1 h the medium was renewed.
In each experimental set-up four MTSs in one 24-well plate were referred to as one group. The groups included control (without treatment agent) and five different treatments with same concentration.
The response to each anticancer treatment was evaluated by measurement of the tracer uptake and total volume of the MTSs after 3 and 5 days of treatment.
Images of MTSs were recorded using a Nikon Colorpix 4500 camera mounted on an inverted Zeiss microscope before Tracer incubation. The acquired data were analyzed by SASDM.
To monitor the effect of each anti-cancer treatment five established PET-tracers; [1-^11C]Acetate, [^11C]Choline, [^11C]Methionine, [^18F]3'-Deoxy-3'-fluorthymifine and 2-[^18F]Fluor-2-deoxyglucose were utilized.
The aggregates were incubated for 30 min (for ^18F-labled tracers) and 50 min (for ^11C-labled tracers) at 37°C with 0.5 ml medium per well containing 3MBq Tracer, and then washed 3x5 min (for ^18F-labled tracers) and 3x3 min (for ^11C-labled tracers) with medium (1 ml/well).
The Tracer-uptake in MTS was defined as: Total uptake = (Act conc.(Bq/ml)of MTS)/(Act conc.(Bq/ml)of reference) [formula]
Each experiment set-up was repeated three times.

[2] = system: MCF-7 human breast cancer line; assay: [18F]FDG uptake per viable volume of MTS after anticancer treatment (MCF-7); type: cell-based; details: MCF-7 MTSs; for [^18F]FDG uptake per viable volume: highest dose of 1 µM
Procedure: as §1, §2
For the MCF-7 cell line, each group included 6 replicates and the experiments were repeated twice.
The response to each anticancer treatment was evaluated by measurement of the [^18F]FDG uptake and viable volume of the MTSs after 2 and 3 days of treatment.

[3] = system: BT474 human breast cancer line; assay: [18F]FDG uptake per viable volume of MTS after anticancer treatment (BT474); details: BT474 MTSs

SMILES: C=C1[C@@H](C)[C@H]2[C@H](Cc3ccccc3)NC(=O)[C@]23OC(=O)/C=C/[C@H](O)CCC[C@@H](C)C/C=C/[C@H]3[C@@H]1O [Cytochalasin B]
[^18F]FDG uptake (MTSs of MCF-7 cell line; glucose-transport inhibitor added to incubation medium, 10-50µM): significantly decreased | IC50 (MTSs of MCF-7 cell line; pre-incubation 0, 10, 25, 50µM, then 50 min [18F]FDG incubation, read-out: 50% inhibition of [^18F]FDG uptake): 0.012 mM

SMILES: CC(=O)O[C@@]12CO[C@@H]1C[C@H](O)[C@@]1(C)C(=O)[C@H](O)C3=C(C)[C@@H](OC(=O)[C@H](O)[C@@H](NC(=O)OC(C)(C)C)c4ccccc4)C[C@@](O)([C@@H](OC(=O)c4ccccc4)[C@H]21)C3(C)C [Docetaxel]
CHO-uptake [1]: increase | FLT-uptake [1]: decreased | MET-uptake [1]: increase

SMILES: COc1cccc2c1C(=O)c1c(O)c3c(c(O)c1C2=O)C[C@@](O)(C(=O)CO)C[C@@H]3O[C@H]1C[C@H](N)[C@H](O)[C@H](C)O1 [Doxorubicin]
ACE-uptake [1]: less decrease | FDG-uptake [1]: less decrease | FLT-uptake [1]: considerable FLT-reduction; also recorded: decreased | reduction of [^18F]FDG uptake per viable volume ([2]; at the highest dose): 25% | [^18F]FDG uptake per viable volume [2]: decreased | [^18F]FDG uptake per viable volume ([3]; at the highest dose): reduced; also recorded: decreased

SMILES: Cc1ccc(NC(=O)c2ccc(CN3CCN(C)CC3)cc2)cc1Nc1nccc(-c2cccnc2)n1 [Imatinib]
CHO-uptake [1]: decrease | FLT-uptake [1]: increase

SMILES: CC(=O)O[C@H]1C(=O)[C@@]2(C)[C@H]([C@H](OC(=O)c3ccccc3)[C@]3(O)C[C@H](OC(=O)[C@H](O)[C@@H](NC(=O)c4ccccc4)c4ccccc4)C(C)=C1C3(C)C)[C@]1(OC(C)=O)CO[C@@H]1C[C@@H]2O [Paclitaxel]
ACE-uptake [1]: approximately as non-treated MTSs | FDG-uptake [1]: approximately as non-treated MTSs | FLT-uptake [1]: significant decrease; also recorded: decreased | [^18F]FDG uptake per viable volume (glucose transport) ([2]; 10nM, 100nM, 1µM, 2 and 3 days, overall): more moderate | glucose transport per viable volume ([3]; lowest dose and shorter treatment time): reduced

SMILES: CC/C(=C(\c1ccccc1)c1ccc(OCCN(C)C)cc1)c1ccccc1 [Tamoxifen]
ACE-uptake [1]: increase | FLT-uptake [1]: decreased | MET-uptake [1]: decrease | [^18F]FDG uptake per viable volume [2]: reduced

IC50 (MTSs of MCF-7 cell line; Homo sapiens, MCF7, 50 min, unlabeled extra glucose 0, 5, 10, 20mM added to medium (5 mM glucose), 50 min incubation, read-out: concentration inducing a 50% reduction of [^18F]FDG uptake compared to control): 10 mM
SMILES: OC[C@H]1OC(O)[C@H](O)[C@@H](O)[C@@H]1O (stereo partly drawn) [glucose]
[^18F]FDG uptake in MTSs (MTSs of MCF-7 cell line; increasing concentration of glucose added to incubation medium): gradually decreased
